In ChEMBL document CHEMBL5034010, “Novel Cephalosporin Conjugates Display Potent and Selective Inhibition of Imipenemase-Type Metallo-β-Lactamases” (J Med Chem, 2021):
≈ marks a conversion by molar mass, not a printed value. One block for each compound: values may come before it. Calls of active or inactive are those of the source. No cut-off for these calls is given here.

Experiments:
Enterobacter cloacae [1] = experiment: Inhibition of Enterobacter cloacae Metallo-beta-lactamase IMP-1
Klebsiella pneumoniae [2] = experiment: Inhibition of Klebsiella pneumoniae beta Metallo-beta-lactamase IMP-28
[3] = Binding affinity to Zinc incubated for 2 hrs measured by isothermal titration calorimetric assay
Escherichia coli [4] = experiment: Inhibition of Metallo-beta-lactamase NDM-1 in Escherichia coli clinical isolate assessed as fold reduction in meropenem MIC at 64 ug/ml; conditions: dose 64.0 µg/ml
Escherichia coli [5] = experiment: Inhibition of Metallo-beta-lactamase NDM-1 in Escherichia coli clinical isolate assessed as MIC for meropenem antibacterial activity at 32 ug/ml (reference value: 64 ug/ml); conditions: dose 32.0 µg/ml
Enterobacter cloacae [6] = experiment: Inhibition of Metallo-beta-lactamase IMP-1 in Enterobacter cloacae clinical isolate assessed as MIC for meropenem antibacterial activity at 128 ug/ml (Rvb =16 ug/ml); conditions: dose 128.0 µg/ml
Klebsiella pneumoniae [7] = experiment: Inhibition of Metallo-beta-lactamase IMP-28 in Klebsiella pneumoniae clinical isolate assessed as MIC for meropenem antibacterial activity at 32 ug/ml (reference value: 4 ug/ml); conditions: dose 32.0 µg/ml
Escherichia coli [8] = experiment: Inhibition of Metallo-beta-lactamase NDM-1 in Escherichia coli clinical isolate assessed as MIC for meropenem antibacterial activity at 64 ug/ml (reference value: 64 ug/ml); conditions: dose 64.0 µg/ml
Klebsiella pneumoniae [9] = experiment: Substrate activity at Klebsiella pneumoniae beta-lactamase IMP-28 assessed as compound hydrolysis by measuring Kcat by Michaelis-Menten analysis
Klebsiella pneumoniae [10] = experiment: Substrate activity at Klebsiella pneumoniae beta-lactamase IMP-28 assessed as compound hydrolysis by measuring Km by Michaelis-Menten analysis
Escherichia coli [11] = experiment: Inhibition of Metallo-beta-lactamase VIM-2 in Escherichia coli clinical isolate assessed as MIC for meropenem antibacterial activity at 128 ug/ml (reference value: 8 ug/ml); conditions: dose 128.0 µg/ml
Enterobacter cloacae [12] = experiment: Inhibition of Metallo-beta-lactamase IMP-1 in Enterobacter cloacae clinical isolate assessed as fold reduction in meropenem MIC at 32 ug/ml; conditions: dose 32.0 µg/ml
[13] = Inhibition of Enterobacter cloacae IMP-1 using nitrocefin chromogenic substrate measured after 15 to 60 min at 25 degC by microplate reader
[14] = Inhibition of Klebsiella pneumoniae beta-lactamase IMP-28 using nitrocefin chromogenic substrate measured after 15 to 60 min at 25 degC by microplate reader
Escherichia coli [15] = experiment: Inhibition of Metallo-beta-lactamase NDM-1 in Escherichia coli clinical isolate assessed as MIC for meropenem antibacterial activity at 128 ug/ml (reference value: 64 ug/ml); conditions: dose 128.0 µg/ml
Klebsiella pneumoniae [16] = experiment: Inhibition of Metallo-beta-lactamase IMP-28 in Klebsiella pneumoniae clinical isolate assessed as fold reduction in meropenem MIC at 32 ug/ml; conditions: dose 32.0 µg/ml
Enterobacter cloacae [17] = experiment: Inhibition of Metallo-beta-lactamase IMP-1 in Enterobacter cloacae clinical isolate assessed as MIC for meropenem antibacterial activity at 32 ug/ml (Rvb =16 ug/ml); conditions: dose 32.0 µg/ml
Enterobacter cloacae [18] = experiment: Inhibition of Metallo-beta-lactamase IMP-1 in Enterobacter cloacae clinical isolate assessed as fold reduction in meropenem MIC at 64 ug/ml; conditions: dose 64.0 µg/ml
Klebsiella pneumoniae [19] = experiment: Inhibition of Metallo-beta-lactamase IMP-28 in Klebsiella pneumoniae clinical isolate assessed as MIC for meropenem antibacterial activity at 128 ug/ml (reference value: 4 ug/ml); conditions: dose 128.0 µg/ml
Enterobacter cloacae [20] = experiment: Inhibition of Metallo-beta-lactamase IMP-1 in Enterobacter cloacae clinical isolate assessed as MIC for meropenem antibacterial activity at 64 ug/ml (Rvb =16 ug/ml); conditions: dose 64.0 µg/ml
Escherichia coli [21] = experiment: Inhibition of Metallo-beta-lactamase NDM-1 in Escherichia coli clinical isolate assessed as fold reduction in meropenem MIC at 128 ug/ml; conditions: dose 128.0 µg/ml
Escherichia coli [22] = experiment: Inhibition of Metallo-beta-lactamase NDM-1 in Escherichia coli clinical isolate assessed as fold reduction in meropenem MIC at 32 ug/ml; conditions: dose 32.0 µg/ml
Enterobacter cloacae [23] = experiment: Inhibition of Metallo-beta-lactamase IMP-1 in Enterobacter cloacae clinical isolate assessed as fold reduction in meropenem MIC at 128 ug/ml; conditions: dose 128.0 µg/ml
Klebsiella pneumoniae [24] = experiment: Inhibition of Metallo-beta-lactamase IMP-28 in Klebsiella pneumoniae clinical isolate assessed as fold reduction in meropenem MIC at 64 ug/ml; conditions: dose 64.0 µg/ml
Klebsiella pneumoniae [25] = experiment: Antibacterial activity against beta-lactamase IMP-28 producing Klebsiella pneumoniae clinical isolate measured upto 128 ug/ml; type: functional, organism-based
Escherichia coli [26] = experiment: Inhibition of Metallo-beta-lactamase VIM-2 in Escherichia coli clinical isolate assessed as fold reduction in meropenem MIC at 32 ug/ml; conditions: dose 32.0 µg/ml
Klebsiella pneumoniae [27] = experiment: Substrate activity at Klebsiella pneumoniae beta-lactamase IMP-28 assessed as compound hydrolysis by measuring Kcat/Km by Michaelis-Menten analysis
[28] = Inhibition of Escherichia coli beta-lactamase VIM-2 using nitrocefin chromogenic substrate measured after 15 to 60 min at 25 degC by microplate reader
Klebsiella pneumoniae [29] = experiment: Inhibition of Metallo-beta-lactamase IMP-28 in Klebsiella pneumoniae clinical isolate assessed as fold reduction in meropenem MIC at 128 ug/ml; conditions: dose 128.0 µg/ml
Escherichia coli [30] = experiment: Inhibition of Metallo-beta-lactamase VIM-2 in Escherichia coli clinical isolate assessed as MIC for meropenem antibacterial activity at 64 ug/ml (reference value: 8 ug/ml); conditions: dose 64.0 µg/ml
Escherichia coli [31] = experiment: Inhibition of Metallo-beta-lactamase VIM-2 in Escherichia coli clinical isolate assessed as fold reduction in meropenem MIC at 128 ug/ml; conditions: dose 128.0 µg/ml
Escherichia coli [32] = experiment: Antibacterial activity against beta-lactamase NDM1 producing Escherichia coli clinical isolate measured upto 128 ug/ml; type: functional, organism-based
Escherichia coli [33] = experiment: Inhibition of Metallo-beta-lactamase VIM-2 in Escherichia coli clinical isolate assessed as fold reduction in meropenem MIC at 64 ug/ml; conditions: dose 64.0 µg/ml
Klebsiella pneumoniae [34] = experiment: Inhibition of Metallo-beta-lactamase IMP-28 in Klebsiella pneumoniae clinical isolate assessed as MIC for meropenem antibacterial activity at 64 ug/ml (reference value: 4 ug/ml); conditions: dose 64.0 µg/ml
Enterobacter cloacae [35] = experiment: Antibacterial activity against beta-lactamase IMP1 producing Enterobacter cloacae clinical isolate measured upto 128 ug/ml; type: functional, organism-based
Escherichia coli [36] = experiment: Inhibition of Metallo-beta-lactamase VIM-2 in Escherichia coli clinical isolate assessed as MIC for meropenem antibacterial activity at 32 ug/ml (reference value: 8 ug/ml); conditions: dose 32.0 µg/ml
Escherichia coli [37] = experiment: Antibacterial activity against beta-lactamase VIM2 producing Escherichia coli clinical isolate measured upto 128 ug/ml; type: functional, organism-based

- inhibition (Enterobacter cloacae [1]): Active
- inhibition (Klebsiella pneumoniae [2]): Active
- Kd [3]: 9.67 µM
Structure (SMILES): O=C(Cc1ccccc1)N[C@H](C(=O)O)[C@@H]1N=C(C(=O)O)C(CSC(C(=O)O)c2ccccc2)CS1 (stereo not given in full)

Structure (SMILES): O=C(Cc1ccccc1)N[C@@H]1C(=O)N2C(C(=O)O)=C(CSCCc3ccccc3)CS[C@H]12
- fold change (FC) (Escherichia coli [4]): 4
- MIC (Escherichia coli [5]): 32 µg/mL (≈ 68.3 µM)
- MIC (Enterobacter cloacae [6]): 8 µg/mL (≈ 17.1 µM)
- MIC (Klebsiella pneumoniae [7]): 0.5 µg/mL (≈ 1.07 µM)
- MIC (Escherichia coli [8]): 16 µg/mL (≈ 34.1 µM)
- kcat (Klebsiella pneumoniae [9]): 6.12 s⁻¹
- Km (Klebsiella pneumoniae [10]): 83.3 µM
- MIC (Escherichia coli [11]): 4 µg/mL (≈ 8.54 µM)
- fold change (FC) (Enterobacter cloacae [12]): 2
- IC50 [13]: 2.2 µM
- IC50 [14]: 4.3 µM
- MIC (Escherichia coli [15]): 16 µg/mL (≈ 34.1 µM)
- fold change (FC) (Klebsiella pneumoniae [16]): 8
- MIC (Enterobacter cloacae [17]): 8 µg/mL (≈ 17.1 µM)
- fold change (FC) (Enterobacter cloacae [18]): 2
- MIC (Klebsiella pneumoniae [19]): 0.25 µg/mL (≈ 0.534 µM)
- MIC (Enterobacter cloacae [20]): 8 µg/mL (≈ 17.1 µM)
- fold change (FC) (Escherichia coli [21]): 4
- fold change (FC) (Escherichia coli [22]): 2
- fold change (FC) (Enterobacter cloacae [23]): 2
- fold change (FC) (Klebsiella pneumoniae [24]): 16
- Activity (Klebsiella pneumoniae [25]): inactive
- fold change (FC) (Escherichia coli [26]): 1
- kcat/Km (Klebsiella pneumoniae [27]): 73000 M⁻¹ s⁻¹
- IC50 [28]: 49 µM
- fold change (FC) (Klebsiella pneumoniae [29]): 16
- MIC (Escherichia coli [30]): 4 µg/mL (≈ 8.54 µM)
- fold change (FC) (Escherichia coli [31]): 2
- Activity (Escherichia coli [32]): inactive
- fold change (FC) (Escherichia coli [33]): 2
- MIC (Klebsiella pneumoniae [34]): 0.25 µg/mL (≈ 0.534 µM)
- Activity (Enterobacter cloacae [35]): inactive
- MIC (Escherichia coli [36]): 8 µg/mL (≈ 17.1 µM)
- Activity (Escherichia coli [37]): inactive

- inhibition (Enterobacter cloacae [1]): Active
- inhibition (Klebsiella pneumoniae [2]): Active
- Kd [3]: 3.19 µM
Structure (SMILES): O=C(Cc1ccccc1)N[C@H](C(=O)O)[C@@H]1N=C(C(=O)O)C(CSC(Cc2ccccc2)C(=O)O)CS1 (stereo not given in full)
